This is an account of results in patent US20240298646A1, “ANTIBIOFILM PRESERVATIVE COMPOSITIONS” (SHARON PERSONAL CARE LTD., priority 2021, published 2024).

What all share (assay): Minimum inhibitory concentration (MIC) and checkerboard assay
Assay type in all cases: cell-based
Common to all, as to conditions: unit assumed

In assay [1] the test system is Candida albicans (ATCC 10231). The text has this: (§1) Escherichia coli (ATCC 8739), Staphylococcus aureus (ATCC 6538), P. aeruginosa (ATCC 9027), Candida albicans (ATCC 10231), and Aspergillus brasiliensis (ATCC 16404) were obtained from ATCC and cultured according to the manufacturer's instructions. These microorganisms are routinely used for minimum inhibitory concentration (MIC), checkerboards and challenge tests according to the US and EU recommendations for the efficacy of preservatives in the cosmetic industry. Bacterial strains were maintained in tryptic soy agar (TSA) (Hy-labs, Rehovot, Israel), while yeast and mold strains were maintained in sabouraud dextrose agar (SDA) (Hy-labs, Israel), supplemented with oxytetracycline at a concentration of 1% (Hy-labs, Israel). […] Briefly, growth of E. coli, S. aureus, P. aeruginosa, P. gergoviea, B. cepacia, C. albicans, and A. brasiliensis was observed during incubation with two-fold serial dilutions of the abovementioned compounds in Mueller Hinton (MH) broth, using a 96-well plate (BIOFUL, Israel). For the checkerboard assay using a 96-well plate, decreasing concentrations of one compound were added from top to bottom of the plate using serial dilutions. Decreasing concentrations of the second compound were added to the plate from the right, having the highest concentration, to the left side of the plate with the lowest concentration. […] Bacteria inoculated plates were incubated for 24 h at 32° C. with shaking, while fungi inoculated plates were incubated at 23° C. for 48-72 h with shaking. Microorganism growth was evaluated by a spectrophotometer O.D. reads (BioTek, Israel). In additional exemplary procedure, MIC evaluation test with Candida albicans was performed in test tubes. Growth in this case is visually evaluated. A pure culture of a single microorganism was grown in Tryptic soy broth, or Sabouraud dextrose broth for yeast and mold. […] While the MIC is defined as the lowest concentration of molecule alone or in combination that inhibited visible growth, the in vitro interactions can be quantified as FICI and calculated using the following formula: […]

The subject of assay [2] is Aspergillus brasiliensis (ATCC 16404).
From the text: as §1, with “In another” for “In additional”, “with A. brasiliensis” for “with Candida albicans”, “Sabouraud” for “Sabouraud dextrose”

Assay [3] deals with Staphylococcus aureus (ATCC 6538). The text has this:
(§2) Escherichia coli (ATCC 8739), Staphylococcus aureus (ATCC 6538), P. aeruginosa (ATCC 9027), Candida albicans (ATCC 10231), and Aspergillus brasiliensis (ATCC 16404) were obtained from ATCC and cultured according to the manufacturer's instructions. These microorganisms are routinely used for minimum inhibitory concentration (MIC), checkerboards and challenge tests according to the US and EU recommendations for the efficacy of preservatives in the cosmetic industry. Bacterial strains were maintained in tryptic soy agar (TSA) (Hy-labs, Rehovot, Israel), while yeast and mold strains were maintained in sabouraud dextrose agar (SDA) (Hy-labs, Israel), supplemented with oxytetracycline at a concentration of 1% (Hy-labs, Israel). […] Briefly, growth of E. coli, S. aureus, P. aeruginosa, P. gergoviea, B. cepacia, C. albicans, and A. brasiliensis was observed during incubation with two-fold serial dilutions of the abovementioned compounds in Mueller Hinton (MH) broth, using a 96-well plate (BIOFUL, Israel). For the checkerboard assay using a 96-well plate, decreasing concentrations of one compound were added from top to bottom of the plate using serial dilutions. Decreasing concentrations of the second compound were added to the plate from the right, having the highest concentration, to the left side of the plate with the lowest concentration. […] Bacteria inoculated plates were incubated for 24 h at 32° C. with shaking, while fungi inoculated plates were incubated at 23° C. for 48-72 h with shaking. Microorganism growth was evaluated by a spectrophotometer O.D. reads (BioTek, Israel). The culture is standardized using standard microbiological techniques to have a concentration of very near 1 million cells per milliliter. The antimicrobial agent is diluted a number of times, with Tryptic soy broth or Sabouraud broth for fungi. After the antimicrobial agent had been diluted, a volume of the standardized inoculums was added to each dilution vessel, bringing the microbial concentration to approximately 1,000,000 cells per milliliter. The inoculated, serially diluted antimicrobial agent was incubated at an appropriate temperature for the test organism, 24 hours for bacteria 48 for yeast and 72 for mold. […] The microorganism strains used for the test were E. coli ATCC 8739, P. aeruginosa ATCC 9027, S. aureus ATCC 6538, C. albicans ATCC 10231, A. brasiliensis ATCC 16404. Measuring synergy between preservatives can be done by the widely described Fractional Inhibitory Concentration Index (FICI). While the MIC is defined as the lowest concentration of molecule alone or in combination that inhibited visible growth, the in vitro interactions can be quantified as FICI and calculated using the following formula: […]

The subject of assay [4] is P. aeruginosa (ATCC 9027).
From the text: as §2

Assay [5] deals with Escherichia coli (ATCC 8739).
From the text: as §2

Turning to `CCCCC(CC)COCC(O)CO` (stereo not drawn) [EHG, ethylhexylglycerin], in assay [1], the MIC C. albicans is 2500 µg/mL. Besides, the MIC A. brasiliensis in assay [2] came out at 1250 µg/mL. Besides, the MIC S. aureus in assay [3] amounted to 2500 µg/mL. Also, the MIC P. aeruginosa in assay [4] is greater than 5000 µg/mL. In addition, in assay [5], the MIC E. coli came to 5000 µg/mL.
On to `Cc1occc(=O)c1O` [Maltol, maltol], for which the MIC C. albicans in assay [1] was 1880 µg/mL. For the same molecule, in assay [2], the MIC A. brasiliensis amounted to 1250 µg/mL. Also, in assay [3], the MIC S. aureus is 5000 µg/mL. Also, in assay [4], the MIC P. aeruginosa was 1250 µg/mL. In assay [5], the MIC E. coli turned out to be 5000 µg/mL.
As to `CC(=O)[O-].CC(=O)[O-].[Zn+2]` [Zinc Acetate, zinc acetate], the MIC C. albicans in assay [1] amounted to 110 µg/mL. For the same molecule, the MIC A. brasiliensis in assay [2] turned out to be 100 µg/mL. Besides, in assay [3], the MIC S. aureus worked out at 160 µg/mL. Also, the MIC P. aeruginosa in assay [4] stood at 312 µg/mL. For the same molecule, in assay [5], the MIC E. coli is 312 µg/mL.
